US6703237B2, “Methods and formulations for mediating adeno-associated virus (AAV) attachment and infection and methods for purifying AAV” (priority 1998, dated 2004)

Experiments:
rAd-LacZ [1] = conditions: 20 mM EDTA; HeLa cells; MOI 2
Experimental: (§1) HeLa cells were infected with recombinant virus (rAd-LacZ [FIG. 11A], rAAV-LacZ [FIG. 11B]) at an MOI of 2 either in the presence or absence of divalent cation chelator EDTA (20 mM) as described in methods. 24 h post Ad infection, and 36 h post AAV infection, cells were fixed and stained for β-galactosidase activity (upper panel). Transduction has been quantitated in the lower panel as the percentage of HeLa cells transduced in the presence or absence of EDTA.
(§2) All infectivity and binding assays were done in suspension in a buffer determined to result in maximum cell viability, HEPES-buffered saline (HBS) containing 1% BSA (HBSB) (Sambrook et al., (1989) Molecular Cloning, A Laboratory Manual, (N. Ford et al., eds.), Cold Spring Harbor Laboratory Press, New York). Adherent cells were first detached with 10 mM EDTA followed by two washes in phosphate buffered saline (PBS) containing […] CaCl2 and 0.5 mM MgCl2 and one wash in HBS. To assess the effect of EDTA on AAV transduction, HeLa cells were incubated with recombinant virus at an MOI of 2 in HBS±20 mM EDTA for 1 hour at 4° C. After washing in HBS±EDTA to remove unbound virus, cells were resuspended in HBS±5 mM EDTA and placed at 37° C. for 30 minutes.

rAAV-LacZ = conditions: 20 mM EDTA; HeLa cells; MOI 2
Experimental: as §1, §2

rAd-LacZ [2] = conditions: Svensson and Persson 1984; cited from earlier work

## O=C(O)CN(CCN(CC(=O)O)CC(=O)O)CC(=O)O [EDTA, ethylenediaminetetraacetate]
rAd-LacZ [1]
  inhibition of recombinant Ad-LacZ transduction: 40%
rAAV-LacZ
  inhibition of AAV infection: greater than 90%
rAd-LacZ [2]
  inhibition of Ad infection, previous published results: 20-50%
